From ChEMBL document CHEMBL1129924, “Synthesis and biological activity of cyclic analogues of MPPG and MCPG as metabotropic glutamate receptor antagonists” (Bioorg Med Chem Lett, 1997)

Assays:
Assay type in all cases: functional
[1] = biological target: Metabotropic glutamate receptor 6 (Rattus norvegicus, UniProt P35349); assay: Antagonistic activity against Metabotropic glutamate receptor 6 was determined at 1 mM; NE = No significant effect observed
[2] = biological target: Metabotropic glutamate receptor 2 (Rattus norvegicus, UniProt P31421); assay: Antagonistic activity against Metabotropic glutamate receptor 2 was determined
Chain of Metabotropic glutamate receptor 2 (P31421 whole entry): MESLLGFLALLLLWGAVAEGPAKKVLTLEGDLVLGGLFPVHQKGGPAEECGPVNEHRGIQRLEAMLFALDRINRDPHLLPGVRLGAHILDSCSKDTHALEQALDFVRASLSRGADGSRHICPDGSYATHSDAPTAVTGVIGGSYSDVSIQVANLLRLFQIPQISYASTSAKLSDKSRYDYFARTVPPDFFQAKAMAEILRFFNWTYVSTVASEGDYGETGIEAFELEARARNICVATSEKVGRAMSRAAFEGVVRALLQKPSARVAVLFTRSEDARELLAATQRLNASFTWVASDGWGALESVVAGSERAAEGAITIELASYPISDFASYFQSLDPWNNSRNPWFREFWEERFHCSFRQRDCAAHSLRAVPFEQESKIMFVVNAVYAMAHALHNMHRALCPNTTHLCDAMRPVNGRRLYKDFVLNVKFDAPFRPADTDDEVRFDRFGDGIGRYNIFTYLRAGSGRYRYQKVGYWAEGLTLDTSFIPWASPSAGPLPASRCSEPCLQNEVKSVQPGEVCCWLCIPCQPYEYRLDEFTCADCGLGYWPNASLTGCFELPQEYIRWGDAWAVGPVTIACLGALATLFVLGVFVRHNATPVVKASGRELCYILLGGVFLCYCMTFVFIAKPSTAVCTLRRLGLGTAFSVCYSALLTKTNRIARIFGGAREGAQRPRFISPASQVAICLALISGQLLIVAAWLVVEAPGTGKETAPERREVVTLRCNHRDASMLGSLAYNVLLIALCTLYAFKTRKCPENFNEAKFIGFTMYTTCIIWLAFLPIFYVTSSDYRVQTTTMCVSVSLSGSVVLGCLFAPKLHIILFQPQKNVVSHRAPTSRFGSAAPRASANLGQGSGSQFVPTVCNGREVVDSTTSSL

[3] = biological target: T1, Metabotropic glutamate receptor 1 (Rattus norvegicus, UniProt P23385); assay: Antagonistic activity against Metabotropic glutamate receptor 1 was determined at 1 mM; NE = No significant effect observed
T1 sequence (P23385 whole entry): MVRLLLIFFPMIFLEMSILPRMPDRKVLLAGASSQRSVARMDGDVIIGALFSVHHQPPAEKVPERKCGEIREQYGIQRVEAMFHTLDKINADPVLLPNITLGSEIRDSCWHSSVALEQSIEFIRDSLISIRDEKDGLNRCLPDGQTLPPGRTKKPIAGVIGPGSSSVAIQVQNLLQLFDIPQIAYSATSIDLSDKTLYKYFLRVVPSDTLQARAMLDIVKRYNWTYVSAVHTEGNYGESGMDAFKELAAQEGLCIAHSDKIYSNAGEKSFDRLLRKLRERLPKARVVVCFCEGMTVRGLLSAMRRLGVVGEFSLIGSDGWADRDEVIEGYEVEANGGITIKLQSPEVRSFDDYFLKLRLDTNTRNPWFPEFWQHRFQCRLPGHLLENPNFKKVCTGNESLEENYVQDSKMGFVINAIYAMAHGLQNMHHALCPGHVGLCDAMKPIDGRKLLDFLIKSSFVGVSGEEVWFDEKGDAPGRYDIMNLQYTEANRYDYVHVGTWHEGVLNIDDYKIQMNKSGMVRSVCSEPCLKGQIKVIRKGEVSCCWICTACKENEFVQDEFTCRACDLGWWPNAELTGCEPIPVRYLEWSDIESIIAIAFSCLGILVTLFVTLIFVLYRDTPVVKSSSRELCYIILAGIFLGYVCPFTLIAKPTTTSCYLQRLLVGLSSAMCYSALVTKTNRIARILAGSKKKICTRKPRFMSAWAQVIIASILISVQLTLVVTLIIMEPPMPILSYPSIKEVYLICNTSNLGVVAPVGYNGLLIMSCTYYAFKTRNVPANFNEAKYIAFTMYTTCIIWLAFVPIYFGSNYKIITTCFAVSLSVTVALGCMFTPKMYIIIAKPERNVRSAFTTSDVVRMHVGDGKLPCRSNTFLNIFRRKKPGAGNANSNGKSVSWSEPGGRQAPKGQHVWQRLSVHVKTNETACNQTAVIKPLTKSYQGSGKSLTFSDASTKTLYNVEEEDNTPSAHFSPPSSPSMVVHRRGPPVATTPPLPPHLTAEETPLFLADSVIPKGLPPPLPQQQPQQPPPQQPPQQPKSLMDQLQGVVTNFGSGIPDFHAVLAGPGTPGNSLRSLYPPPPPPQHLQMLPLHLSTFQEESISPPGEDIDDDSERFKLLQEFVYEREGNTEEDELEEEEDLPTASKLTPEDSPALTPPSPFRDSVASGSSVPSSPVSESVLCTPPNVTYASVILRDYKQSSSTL

[4] = biological target: T2, Metabotropic glutamate receptor 5 (Rattus norvegicus, UniProt P31424); assay: Antagonistic activity against Metabotropic glutamate receptor 5 was determined at 1 mM; NE = No significant effect observed
T2 sequence (P31424 whole entry): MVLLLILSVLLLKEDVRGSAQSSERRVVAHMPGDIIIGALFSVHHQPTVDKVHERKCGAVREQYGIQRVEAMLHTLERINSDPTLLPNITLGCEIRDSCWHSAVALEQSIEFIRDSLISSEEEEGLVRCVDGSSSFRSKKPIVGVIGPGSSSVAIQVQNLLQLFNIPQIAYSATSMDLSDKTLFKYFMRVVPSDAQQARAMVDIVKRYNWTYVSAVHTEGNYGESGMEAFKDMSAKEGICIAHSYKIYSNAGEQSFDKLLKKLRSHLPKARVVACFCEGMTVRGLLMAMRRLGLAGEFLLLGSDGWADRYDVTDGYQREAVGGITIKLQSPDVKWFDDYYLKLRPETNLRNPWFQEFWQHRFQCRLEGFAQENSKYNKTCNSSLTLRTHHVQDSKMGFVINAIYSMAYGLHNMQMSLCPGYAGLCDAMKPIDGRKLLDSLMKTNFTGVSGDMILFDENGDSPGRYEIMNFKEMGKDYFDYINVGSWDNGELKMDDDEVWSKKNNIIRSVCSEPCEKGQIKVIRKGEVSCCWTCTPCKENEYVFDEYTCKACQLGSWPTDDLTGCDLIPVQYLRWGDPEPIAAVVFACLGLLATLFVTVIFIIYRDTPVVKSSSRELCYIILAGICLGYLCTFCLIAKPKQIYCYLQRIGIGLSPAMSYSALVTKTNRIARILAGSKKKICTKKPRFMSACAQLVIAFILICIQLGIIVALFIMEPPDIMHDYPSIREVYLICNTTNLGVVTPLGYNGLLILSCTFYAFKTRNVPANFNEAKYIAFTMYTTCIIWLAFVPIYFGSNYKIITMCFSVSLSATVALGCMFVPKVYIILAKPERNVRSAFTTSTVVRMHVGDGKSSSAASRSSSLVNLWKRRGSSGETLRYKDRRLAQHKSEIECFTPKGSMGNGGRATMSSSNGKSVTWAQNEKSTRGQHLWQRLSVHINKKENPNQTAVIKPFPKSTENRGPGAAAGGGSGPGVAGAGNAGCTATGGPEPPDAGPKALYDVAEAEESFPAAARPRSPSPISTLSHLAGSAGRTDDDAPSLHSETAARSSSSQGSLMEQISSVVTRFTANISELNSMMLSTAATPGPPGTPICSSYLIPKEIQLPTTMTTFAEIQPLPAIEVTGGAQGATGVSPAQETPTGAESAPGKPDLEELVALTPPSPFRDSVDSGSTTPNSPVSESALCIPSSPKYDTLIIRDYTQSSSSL

[5] = biological target: T1, Metabotropic glutamate receptor 1; assay: Antagonistic activity against Metabotropic glutamate receptor 1 was determined
[6] = biological target: T2, Metabotropic glutamate receptor 5; assay: Antagonistic activity against Metabotropic glutamate receptor 5 was determined

Chain of Metabotropic glutamate receptor 6 (P35349 whole entry): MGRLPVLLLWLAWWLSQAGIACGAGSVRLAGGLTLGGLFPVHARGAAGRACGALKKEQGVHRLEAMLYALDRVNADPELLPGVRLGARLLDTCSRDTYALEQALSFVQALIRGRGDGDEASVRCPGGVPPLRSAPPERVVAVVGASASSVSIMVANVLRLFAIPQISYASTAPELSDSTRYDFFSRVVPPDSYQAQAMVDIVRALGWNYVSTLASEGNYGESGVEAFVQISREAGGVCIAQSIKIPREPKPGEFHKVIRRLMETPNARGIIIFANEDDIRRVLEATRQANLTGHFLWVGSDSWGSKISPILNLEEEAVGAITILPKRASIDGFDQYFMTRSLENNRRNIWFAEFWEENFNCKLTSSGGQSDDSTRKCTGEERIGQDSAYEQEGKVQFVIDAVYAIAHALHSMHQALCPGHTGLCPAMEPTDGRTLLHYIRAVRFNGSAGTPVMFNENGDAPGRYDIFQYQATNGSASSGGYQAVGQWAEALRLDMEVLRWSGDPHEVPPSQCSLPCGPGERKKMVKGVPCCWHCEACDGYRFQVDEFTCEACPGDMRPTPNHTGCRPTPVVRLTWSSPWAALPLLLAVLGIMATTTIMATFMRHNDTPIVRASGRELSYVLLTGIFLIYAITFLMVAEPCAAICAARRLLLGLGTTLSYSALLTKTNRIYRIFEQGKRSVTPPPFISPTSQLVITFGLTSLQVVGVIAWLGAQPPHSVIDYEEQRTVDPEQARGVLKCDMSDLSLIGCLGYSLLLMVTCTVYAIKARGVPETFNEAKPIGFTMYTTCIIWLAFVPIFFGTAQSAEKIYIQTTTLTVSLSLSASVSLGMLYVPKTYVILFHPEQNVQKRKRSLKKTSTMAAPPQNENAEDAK

SMILES	IC50 [1]	IC50 [2]	IC50 [3]	IC50 [4]	IC50 [5]	IC50 [6]
NC1(C(=O)O)CCc2cc(P(=O)(O)O)ccc21 (stereo not drawn)	No effect	30 µM	No effect	No effect	–	–
CC1(C)CC(N)(C(=O)O)c2ccc(C(=O)O)cc2O1 (stereo not drawn)	No effect	43 µM	–	–	93 µM	355 µM
